Reference: US20260062387A1, “SALT-INDUCIBLE KINASE INHIBITOR COMPOUND AND PHARMACEUTICAL COMPOSITION INCLUDING THE SAME” (MITSUBISHI TANABE PHARMA CORPORATION, priority 2023, published 2026)

How the values were obtained:
Format in all cases: biochemical
GST-tagged SIK1 = GST-tagged SIK1 (Homo sapiens (Human), UniProt P57059); test: SIK1 inhibition test (ADP-Glo Max Assay); conditions: enzyme 20 nM, AMARA Peptide 200 μM, ATP 1 mM, 2 hours room temperature
Method: (§1) The compounds described in Examples above were used in the SIK1, SIK2, and SIK3 inhibition test.
(§2) The inhibitory activity of the compound for SIK1, SIK2, and SIK3 enzymes was assayed by measuring the amount of ADP, an enzyme reaction product, with ADP-Glo™ Max Assay (Promega). Enzymes, specifically, GST-tagged SIK1 (Carna Biosciences, Inc.), GST-tagged SIK2 (Carna Biosciences, Inc.), and GST-tagged SIK3 (SignalChem) were prepared in a reaction buffer (15 mM tris-hydrochloric acid buffer (pH 7.5), 0.001% Triton X-100, 0.01% BSA) so that the final concentration would be 20 nM, 3 nM, and 100 nM. Enzyme solutions were thus formed. In a reaction buffer, AMARA Peptide (SignalChem) as a substrate with a final concentration of 200 μM (SIK1, SIK2) or 100 μM (SIK3), ATP (Promega) with a final concentration of 1 mM, and magnesium chloride with a final concentration of 5 mM were prepared. Substrate solutions were thus formed. The enzyme solution, the substrate solution, and a DMSO solution of a concentration of the test compound were mixed together and reacted at room temperature for 2 hours. After the reaction, ADP-Glo™ Reagent (Promega) was added, and the reaction was performed at room temperature for 30 minutes. Subsequently, ADP-Glo™ Max Detection Reagent (Promega) was added, and the reaction was performed at room temperature for 30 minutes. The emission by the luciferase reaction was measured with PHERAstar FSX (BMG LABTECH).
(§3) The inhibitory ratio (%) was calculated by: % Inhibition={1−(intensity of sample−intensity of blank (no enzyme solution added))/(intensity of control (DMSO alone)−intensity of blank)}×100. The inhibitory concentration IC50 was calculated based on 16 data values obtained in the concentration response test.

GST-tagged SIK2 = GST-tagged SIK2 (Homo sapiens (Human), UniProt Q9H0K1); test: SIK2 inhibition test (ADP-Glo Max Assay); conditions: enzyme 3 nM, AMARA Peptide 200 μM, ATP 1 mM, 2 hours room temperature
Method: as §1, §2, §3

GST-tagged SIK3 = GST-tagged SIK3 (Homo sapiens (Human), UniProt Q9Y2K2); test: SIK3 inhibition test (ADP-Glo Max Assay); conditions: enzyme 100 nM, AMARA Peptide 100 μM, ATP 1 mM, 2 hours room temperature
Method: as §1, §2, §3

GST-tagged SIK2, sequence (Q9H0K1 whole entry): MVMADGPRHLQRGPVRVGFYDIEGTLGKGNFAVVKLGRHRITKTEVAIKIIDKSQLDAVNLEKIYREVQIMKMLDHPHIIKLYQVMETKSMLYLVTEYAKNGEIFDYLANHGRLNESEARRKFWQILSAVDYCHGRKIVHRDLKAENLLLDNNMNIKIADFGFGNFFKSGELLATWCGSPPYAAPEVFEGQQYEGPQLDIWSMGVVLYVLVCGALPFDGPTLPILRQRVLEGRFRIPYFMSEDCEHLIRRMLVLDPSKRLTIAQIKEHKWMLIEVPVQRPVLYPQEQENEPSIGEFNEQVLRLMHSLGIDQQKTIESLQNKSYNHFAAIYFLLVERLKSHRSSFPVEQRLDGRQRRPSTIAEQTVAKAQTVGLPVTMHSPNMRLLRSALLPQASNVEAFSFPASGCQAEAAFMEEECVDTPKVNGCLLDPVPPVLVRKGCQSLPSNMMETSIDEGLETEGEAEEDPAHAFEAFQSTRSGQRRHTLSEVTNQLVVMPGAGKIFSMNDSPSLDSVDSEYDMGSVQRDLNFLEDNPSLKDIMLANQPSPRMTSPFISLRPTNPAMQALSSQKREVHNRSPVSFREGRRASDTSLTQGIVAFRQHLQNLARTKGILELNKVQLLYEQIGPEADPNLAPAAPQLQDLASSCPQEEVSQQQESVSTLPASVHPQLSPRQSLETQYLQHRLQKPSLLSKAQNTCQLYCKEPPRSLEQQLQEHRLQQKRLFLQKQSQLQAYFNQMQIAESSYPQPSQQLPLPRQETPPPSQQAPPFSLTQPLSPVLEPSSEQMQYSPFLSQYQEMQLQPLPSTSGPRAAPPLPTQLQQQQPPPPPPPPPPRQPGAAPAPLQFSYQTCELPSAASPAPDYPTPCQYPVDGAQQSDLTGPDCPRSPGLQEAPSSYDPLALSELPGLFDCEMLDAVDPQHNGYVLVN
GST-tagged SIK3, sequence (Q9Y2K2 whole entry): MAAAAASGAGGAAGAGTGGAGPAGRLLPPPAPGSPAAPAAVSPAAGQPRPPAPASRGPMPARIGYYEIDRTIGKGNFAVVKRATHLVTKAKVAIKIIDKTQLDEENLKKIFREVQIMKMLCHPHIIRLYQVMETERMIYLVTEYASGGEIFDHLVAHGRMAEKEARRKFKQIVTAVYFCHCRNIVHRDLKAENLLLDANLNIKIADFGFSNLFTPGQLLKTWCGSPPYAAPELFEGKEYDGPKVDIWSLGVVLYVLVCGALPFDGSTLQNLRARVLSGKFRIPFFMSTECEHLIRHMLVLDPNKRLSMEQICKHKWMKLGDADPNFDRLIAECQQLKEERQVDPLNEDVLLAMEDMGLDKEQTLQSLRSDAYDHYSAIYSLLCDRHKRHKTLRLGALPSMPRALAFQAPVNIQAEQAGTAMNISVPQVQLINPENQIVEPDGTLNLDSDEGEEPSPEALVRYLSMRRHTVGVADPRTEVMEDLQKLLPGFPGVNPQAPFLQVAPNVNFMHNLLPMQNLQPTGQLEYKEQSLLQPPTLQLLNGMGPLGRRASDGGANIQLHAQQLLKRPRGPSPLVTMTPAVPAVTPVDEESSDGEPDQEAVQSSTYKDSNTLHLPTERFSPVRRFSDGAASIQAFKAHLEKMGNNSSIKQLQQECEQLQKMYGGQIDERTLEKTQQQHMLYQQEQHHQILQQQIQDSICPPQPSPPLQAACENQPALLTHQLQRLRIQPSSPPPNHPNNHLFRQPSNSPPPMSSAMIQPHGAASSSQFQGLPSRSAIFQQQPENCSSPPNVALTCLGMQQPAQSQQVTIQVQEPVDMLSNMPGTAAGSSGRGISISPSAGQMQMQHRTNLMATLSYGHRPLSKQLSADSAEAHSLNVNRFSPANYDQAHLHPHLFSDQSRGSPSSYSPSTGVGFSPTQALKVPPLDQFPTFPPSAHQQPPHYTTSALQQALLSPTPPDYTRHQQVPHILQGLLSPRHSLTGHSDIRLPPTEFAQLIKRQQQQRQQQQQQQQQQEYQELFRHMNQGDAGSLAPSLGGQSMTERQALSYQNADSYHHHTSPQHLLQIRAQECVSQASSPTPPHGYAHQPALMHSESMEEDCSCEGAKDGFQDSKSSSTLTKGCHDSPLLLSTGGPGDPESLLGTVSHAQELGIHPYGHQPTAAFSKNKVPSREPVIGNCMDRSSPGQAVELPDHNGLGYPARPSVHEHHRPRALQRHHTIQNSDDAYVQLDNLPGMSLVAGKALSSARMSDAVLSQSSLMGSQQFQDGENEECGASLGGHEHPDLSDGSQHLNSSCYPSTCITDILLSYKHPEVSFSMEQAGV
GST-tagged SIK1, sequence (P57059 whole entry): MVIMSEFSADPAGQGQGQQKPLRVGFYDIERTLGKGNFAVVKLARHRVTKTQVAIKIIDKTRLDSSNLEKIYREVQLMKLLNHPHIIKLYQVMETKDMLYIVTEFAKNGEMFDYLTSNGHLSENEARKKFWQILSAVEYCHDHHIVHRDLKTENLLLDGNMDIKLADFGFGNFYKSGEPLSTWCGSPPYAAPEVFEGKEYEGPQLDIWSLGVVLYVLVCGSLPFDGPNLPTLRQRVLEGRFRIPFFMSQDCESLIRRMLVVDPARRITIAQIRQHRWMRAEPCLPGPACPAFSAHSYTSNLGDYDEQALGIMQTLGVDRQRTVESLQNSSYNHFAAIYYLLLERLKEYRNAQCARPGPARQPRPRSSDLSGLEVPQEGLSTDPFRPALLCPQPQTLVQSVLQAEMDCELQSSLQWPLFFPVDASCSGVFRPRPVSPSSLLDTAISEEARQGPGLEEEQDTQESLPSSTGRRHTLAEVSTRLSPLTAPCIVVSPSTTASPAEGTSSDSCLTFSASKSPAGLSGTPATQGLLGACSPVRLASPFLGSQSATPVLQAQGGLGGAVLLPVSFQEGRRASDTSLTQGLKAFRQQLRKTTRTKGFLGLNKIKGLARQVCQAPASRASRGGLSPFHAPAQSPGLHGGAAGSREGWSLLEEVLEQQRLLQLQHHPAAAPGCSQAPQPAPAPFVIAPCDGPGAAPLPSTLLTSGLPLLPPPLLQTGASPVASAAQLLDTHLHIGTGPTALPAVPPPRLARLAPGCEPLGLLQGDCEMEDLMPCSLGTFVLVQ

| Compound | IC50 (GST-tagged SIK1) [nM] | IC50 (GST-tagged SIK2) [nM] | IC50 (GST-tagged SIK3) [nM] |
| --- | --- | --- | --- |
| COc1cc(-c2c3c(C#N)cc(-c4cnn(C)c4)cc3nn2C)cc(OC(F)F)c1C(=O)NC[C@@H]1CC1(F)F (single isomer, unassigned) [Example 46] | 14.7 | 5.3 | 7.2 |
| COc1cc(-c2c3c(C#N)cc(-c4cnn(CCN5CCOCC5)c4)cc3nn2C)cc(OC(F)F)c1C(=O)NC[C@@H]1CC1(F)F (single isomer, unassigned) [Example 85] | 9.9 | 7.1 | 8.6 |
| COc1cc(-c2c3c(C#N)cc(-c4cnn(CC(C)(C)O)c4)cc3nn2C)cc(OC(F)F)c1C(=O)NC[C@@H]1CC1(F)F (single isomer, unassigned) [Example 86] | 13.7 | 13.1 | 19.4 |
| COc1cc(-c2c3c(C#N)cc(-c4cnn(C)c4)cc3nn2C)cc2c1C(=O)NC[C@@H]2C (single isomer, unassigned) [Example 88] | 7.4 | 4.5 | 5.3 |
| COc1cc(-c2c3c(C#N)cc(-c4cnn(C[C@H](C)O)c4)cc3nn2C)cc(OC(F)F)c1C(=O)NC[C@@H]1CC1(F)F (single isomer, unassigned) [Example 95, 4-[4-cyano-6-[1-[(2S)-2-hydroxypropyl]pyrazol-4-yl]-2-methylindazol-3-yl]-N-[[(1R*)-2,2-difluorocyclopropyl]methyl]-2-(difluoromethoxy)-6-methoxybenzamide] | 16 | 13.3 | 5.7 |
| CCn1cc(-c2cc(C#N)c3c(-c4cc(OC)c5c(c4)[C@@H](C)CNC5=O)n(C)nc3c2)cn1 (single isomer, unassigned) [Example 105] | 10 | 3.4 | 8.1 |
| COc1cc(-c2c3c(C#N)cc(-c4cnn(CC(F)F)c4)cc3nn2C)cc2c1C(=O)NC[C@@H]2C (single isomer, unassigned) [Example 107] | 8.3 | 4 | 8 |
| COc1cc(-c2c3c(C#N)cc(-c4cnn(CC(F)(F)F)c4)cc3nn2C)cc2c1C(=O)NC[C@@H]2C (single isomer, unassigned) [Example 126] | 7.3 | 1.5 | 5.1 |
| COCCn1cc(-c2cc(C#N)c3c(-c4cc(OC)c5c(c4)[C@@H](C)CNC5=O)n(C)nc3c2)cn1 (single isomer, unassigned) [Example 127] | 6.9 | 1.3 | 7.6 |
| COc1cc(-c2c3c(C#N)cc(-c4cnn(C(F)F)c4)cc3nn2C)cc2c1C(=O)NC[C@@H]2C (single isomer, unassigned) [Example 128] | 8.2 | 1 | 6.6 |
| CCOc1cc(-c2cnn(C)c2)cc2nn(C)c(-c3cc(OC)c4c(c3)[C@@H](C)CNC4=O)c12 (single isomer, unassigned) [Example 163] | 5.1 | 1.4 | 11.6 |
| COc1cc(-c2c3c(C#N)cc(-c4cnn(CCN5CC(F)(F)C5)c4)cc3nn2C)cc(OC(F)F)c1C(=O)NC[C@@H]1CC1(F)F (stereo in doubt) [Example 108, 4-[4-cyano-6-[1-[2-(3,3-difluoroazetidin-1-yl)ethyl]pyrazol-4-yl]-2-methylindazol-3-yl]-2-(difluoromethoxy)-6-methoxy-N-[[rel-(1R)-2,2-difluorocyclopropyl]methyl]benzamide] | 16.8 | 6.5 | 2.4 |
| COc1cc(-n2cnc3cc(-c4cnn(C)c4)ccc32)cc(OC)c1C(=O)NCC(F)F [Comparative Example 2, reference compound] | 1000 | 86.4 | 39.7 |
| COc1cc(-c2cnc3cc(-c4cnn(C)c4)ccn23)cc2c1C(=O)N(C1CC1)CC2 [Comparative Example 3, 2-cyclopropyl-8-methoxy-6-[7-(1-methylpyrazol-4-yl)imidazo[1,2-a]pyridin-3-yl]-3,4-dihydroisoquinolin-1-one, reference compound] | 398 | 22.7 | 6.5 |

Results, then the compound that gave them:

| IC50 (GST-tagged SIK1) [nM] | IC50 (GST-tagged SIK2) [nM] | IC50 (GST-tagged SIK3) [nM] | Compound |
| --- | --- | --- | --- |
| 7.1 | 2 | 19.7 | COc1cc(-c2c3c(OC(F)F)cc(-c4cnn(C)c4)cc3nn2C)cc2c1C(=O)NC[C@@H]2C (single isomer, unassigned) [Example 164] |
| 5.2 | 1.5 | 6.8 | COc1cc(-c2cnn(C)c2)cc2nn(C)c(-c3cc(OC(F)F)c4c(c3)[C@@H](C)CNC4=O)c12 (single isomer, unassigned) [Example 165] |
| 11.9 | 3.1 | 9.6 | COc1cc(-c2cnn(C)c2)cc2nn(C)c(-c3cc(OC(F)F)c4c(c3)[C@@H](C)CNC4=O)c12 (single isomer, unassigned) [Example 166] |
| 8.5 | 1.7 | 4.1 | COc1cc(-c2c3c(C#N)cc(-c4cnn(C(C)C)c4)cc3nn2C)cc2c1C(=O)NC[C@@H]2C (single isomer, unassigned) [Example 167] |
| 6.8 | 1.4 | 2.7 | CCCCn1cc(-c2cc(C#N)c3c(-c4cc(OC)c5c(c4)[C@@H](C)CNC5=O)n(C)nc3c2)cn1 (single isomer, unassigned) [Example 168] |
| 8.1 | 1.9 | 3.4 | COc1cc(-c2c3c(C#N)cc(-c4cnn(CC(C)C)c4)cc3nn2C)cc2c1C(=O)NC[C@@H]2C (single isomer, unassigned) [Example 169] |
| 8.5 | 1.7 | 4.3 | COc1cc(-c2c3c(C#N)cc(-c4cnn(CC5CC5)c4)cc3nn2C)cc2c1C(=O)NC[C@@H]2C (single isomer, unassigned) [Example 170] |
| 9.1 | 2.3 | 4.7 | COc1cc(-c2c3c(C#N)cc(-c4cnn(CCC(C)C)c4)cc3nn2C)cc2c1C(=O)NC[C@@H]2C (single isomer, unassigned) [Example 171] |
| 19.5 | 7.8 | 7 | COCCn1cc(-c2cc(C#N)c3c(-c4cc(OC(F)F)c5c(c4)[C@@H](C)CNC5=O)n(C)nc3c2)cn1 (single isomer, unassigned) [Example 172] |
| 7.5 | 2.1 | 3.5 | COCCn1cc(-c2cc(C#N)c3c(-c4cc(OC(F)F)c5c(c4)[C@@H](C)CNC5=O)n(C)nc3c2)cn1 (single isomer, unassigned) [Example 173] |
| 8.6 | 2.3 | 2.6 | CCn1cc(-c2cc(C#N)c3c(-c4cc(OC(F)F)c5c(c4)[C@@H](C)CNC5=O)n(C)nc3c2)cn1 (single isomer, unassigned) [Example 174] |
| 7.5 | 2.9 | 7.2 | COc1cc(-c2cnn(C[C@H](C)O)c2)cc2nn(C)c(-c3cc(OC(F)F)c4c(c3)[C@@H](C)CNC4=O)c12 (single isomer, unassigned) [Example 175] |
| 11 | 5.9 | 11.9 | COc1cc(-c2cnn(C[C@H](C)O)c2)cc2nn(C)c(-c3cc(OC(F)F)c4c(c3)[C@@H](C)CNC4=O)c12 (single isomer, unassigned) [Example 176] |
| 5.4 | 3.1 | 10.1 | COCCn1cc(-c2cc(OC)c3c(-c4cc(OC(F)F)c5c(c4)[C@@H](C)CNC5=O)n(C)nc3c2)cn1 (single isomer, unassigned) [Example 177] |
| 10.1 | 4.7 | 15.6 | COCCn1cc(-c2cc(OC)c3c(-c4cc(OC(F)F)c5c(c4)[C@@H](C)CNC5=O)n(C)nc3c2)cn1 (single isomer, unassigned) [Example 178] |
| 5.7 | 2 | 6.1 | CCn1cc(-c2cc(OC)c3c(-c4cc(OC(F)F)c5c(c4)[C@@H](C)CNC5=O)n(C)nc3c2)cn1 (single isomer, unassigned) [Example 179] |
| 13.2 | 5.1 | 12.4 | CCn1cc(-c2cc(OC)c3c(-c4cc(OC(F)F)c5c(c4)[C@@H](C)CNC5=O)n(C)nc3c2)cn1 (single isomer, unassigned) [Example 180] |
| 19.4 | 6.1 | 3.5 | C[C@H]1CNC(=O)c2c(OC(F)F)cc(-c3c4c(C#N)cc(-c5cnn(C)c5)cc4nn3C)cc21 (single isomer, unassigned) [Example 181] |
| 6.4 | 2.5 | 2 | C[C@H]1CNC(=O)c2c(OC(F)F)cc(-c3c4c(C#N)cc(-c5cnn(C)c5)cc4nn3C)cc21 (single isomer, unassigned) [Example 182] |
